Assay [1] addresses T1, human TRPV1 (Homo sapiens (Human), UniProt Q8NER1). Description: Acid Activation Assay (pH 5.0, intracellular Ca2+, FLIPR). The assay is classed as cell-based. Conditions: percentage of the maximal pH 5.0-induced response remaining; recombinant HEK293 hTRPV1 cells; maximum concentration tested 37.5 μM. Summed up:
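HEK293 cells stably expressing recombinant hTRPV1, loaded with Calcium-4 dye 90-120 min at 25° C. Compounds added over a 12-point half-log range (top 37.5 μM), then pH 5.0 DPBS/MES challenge after 3 min; FLIPR peak fluorescence over baseline given as % of maximal pH 5.0 response.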

The target in assay [2] is T1, human TRPV1. Description: Capsaicin Activation Assay (intracellular Ca2+, FLIPR). The format is cell-based. Conditions: recombinant HEK293 cells expressing hTRPV1, 50 nM capsaicin. Summed up: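 Stably transfected HEK293 cells expressing human TRPV1 cDNA, plated the day before in poly-D-lysine plates. Compounds serially diluted from 10 mM DMSO stocks; intracellular Ca2+ fluorescence read on FLIPR at 1 to 5 second intervals.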

In general, IC50 refers to the concentration at which inhibition is half-maximal.

The structures appear in SMILES notation.

T1 sequence (Q8NER1 whole entry): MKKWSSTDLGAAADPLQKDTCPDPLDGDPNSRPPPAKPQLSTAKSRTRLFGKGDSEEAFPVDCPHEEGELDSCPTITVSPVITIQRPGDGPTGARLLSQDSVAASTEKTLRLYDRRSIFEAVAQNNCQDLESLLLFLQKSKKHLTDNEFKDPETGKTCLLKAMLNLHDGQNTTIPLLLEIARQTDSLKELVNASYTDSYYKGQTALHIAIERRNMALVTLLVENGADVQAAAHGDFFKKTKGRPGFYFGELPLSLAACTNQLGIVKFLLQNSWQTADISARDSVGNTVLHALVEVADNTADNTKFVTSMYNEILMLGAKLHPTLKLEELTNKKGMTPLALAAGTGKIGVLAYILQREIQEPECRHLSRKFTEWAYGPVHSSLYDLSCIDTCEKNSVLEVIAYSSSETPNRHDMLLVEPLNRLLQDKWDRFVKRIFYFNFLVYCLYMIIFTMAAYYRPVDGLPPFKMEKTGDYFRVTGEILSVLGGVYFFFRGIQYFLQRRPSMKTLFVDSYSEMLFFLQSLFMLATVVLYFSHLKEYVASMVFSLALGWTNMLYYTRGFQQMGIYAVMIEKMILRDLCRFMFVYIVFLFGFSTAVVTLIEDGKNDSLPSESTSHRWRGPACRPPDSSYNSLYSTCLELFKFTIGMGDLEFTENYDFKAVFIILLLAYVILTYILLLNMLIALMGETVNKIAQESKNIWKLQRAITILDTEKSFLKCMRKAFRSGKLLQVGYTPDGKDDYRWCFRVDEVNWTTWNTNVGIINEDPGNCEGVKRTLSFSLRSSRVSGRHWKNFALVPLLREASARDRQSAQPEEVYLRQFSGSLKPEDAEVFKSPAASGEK

For `Cn1c(=O)ccc2c(NC(=O)N[C@@H]3CC(CF)(CF)Oc4c(F)cc(F)cc43)cccc21` [Example 72, 1-[(4R)-6,8-difluoro-2,2-bis(fluoromethyl)-3,4-dihydro-2H-chromen-4-yl]-3-(1-methyl-2-oxo-1,2-dihydroquinolin-5-yl)urea], at human TRPV1 [1], the “human TRPV1 H^+ (max % remain)” value is 36%. In addition, the IC50 on human TRPV1 [2] worked out at 54 nM.

On to `Cn1c(=O)ccc2c(NC(=O)N[C@@H]3CC4(CCC4)Oc4ccc(F)cc43)cccc21` [Example 73, 1-[(4R)-6-fluoro-3,4-dihydrospiro[chromene-2,1′-cyclobutan]-4-yl]-3-(1-methyl-2-oxo-1,2-dihydroquinolin-5-yl)urea], for which the “human TRPV1 H^+ (max % remain)” value at human TRPV1 [1] was determined as 32%. The IC50 on human TRPV1 [2] came to 19 nM.

In the case of `CCC1(CC)C[C@@H](NC(=O)Nc2cccc3c2ccc(=O)n3C)c2cc(F)ccc2O1` [Example 74, 1-[(4R)-2,2-diethyl-6-fluoro-3,4-dihydro-2H-chromen-4-yl]-3-(1-methyl-2-oxo-1,2-dihydroquinolin-5-yl)urea], at human TRPV1 [1], the “human TRPV1 H^+ (max % remain)” value was 28%. At human TRPV1 [2], the IC50 is 19 nM.

In the case of `CCCC1(CCC)C[C@@H](NC(=O)Nc2cccc3c2ccc(=O)n3C)c2cccc(F)c2O1` [Example 75, 1-[(4R)-8-fluoro-2,2-dipropyl-3,4-dihydro-2H-chromen-4-yl]-3-(1-methyl-2-oxo-1,2-dihydroquinolin-5-yl)urea], the “human TRPV1 H^+ (max % remain)” value at human TRPV1 [1] amounted to 50%. Further, the IC50 at human TRPV1 [2] stood at 24 nM.

On to `CCC1(CC)C[C@@H](NC(=O)Nc2cccc3c2ccc(=O)n3C)c2ccc(OC(F)(F)F)cc2O1` [Example 76, 1-[(4R)-2,2-diethyl-7-(trifluoromethoxy)-3,4-dihydro-2H-chromen-4-yl]-3-(1-methyl-2-oxo-1,2-dihydroquinolin-5-yl)urea], for which the “human TRPV1 H^+ (max % remain)” value on human TRPV1 [1] is on record as 17%. The half-maximal inhibitory concentration (IC50) on human TRPV1 [2] worked out at 32 nM.

For `Cn1c(=O)ccc2c(NC(=O)N[C@@H]3CC(C)(C)Oc4ccccc43)cccc21` [Example 77, 1-[(4R)-2,2-dimethyl-3,4-dihydro-2H-chromen-4-yl]-3-(1-methyl-2-oxo-1,2-dihydroquinolin-5-yl)urea], on human TRPV1 [1], the “human TRPV1 H^+ (max % remain)” value is given as 58%. The IC50 on human TRPV1 [2] amounted to 41 nM.

As for `Cn1c(=O)ccc2c(NC(=O)N[C@H]3CCOc4cc(OC(F)(F)F)ccc43)cccc21` [Example 78, 1-(1-methyl-2-oxo-1,2-dihydroquinolin-5-yl)-3-[(4S)-7-(trifluoromethoxy)-3,4-dihydro-2H-chromen-4-yl]urea], at human TRPV1 [1], the “human TRPV1 H^+ (max % remain)” value was determined as 46%. Besides, at human TRPV1 [2], the IC50 came to 91 nM.

Consider `COCC1(COC)C[C@@H](NC(=O)Nc2cccc3c2ccc(=O)n3C)c2cc(F)ccc2O1` [Example 79, 1-[(4R)-6-fluoro-2,2-bis(methoxymethyl)-3,4-dihydro-2H-chromen-4-yl]-3-(1-methyl-2-oxo-1,2-dihydroquinolin-5-yl)urea], for which the “human TRPV1 H^+ (max % remain)” value at human TRPV1 [1] is 46%. Further, on human TRPV1 [2], the IC50 stood at 260 nM.

As for `Cn1c(=O)ccc2c(NC(=O)N[C@@H]3CC(CF)(CF)Oc4ccccc43)cccc21` [Example 80, 1-[(4R)-2,2-bis(fluoromethyl)-3,4-dihydro-2H-chromen-4-yl]-3-(1-methyl-2-oxo-1,2-dihydroquinolin-5-yl)urea], at human TRPV1 [1], the “human TRPV1 H^+ (max % remain)” value was 45%. On human TRPV1 [2], the half-maximal inhibitory concentration (IC50) was determined as 63 nM.

With `Cn1c(=O)ccc2c(NC(=O)N[C@@H]3CC(C)(C)Oc4c3ccc(F)c4F)cccc21` [Example 81, 1-[(4R)-7,8-difluoro-2,2-dimethyl-3,4-dihydro-2H-chromen-4-yl]-3-(1-methyl-2-oxo-1,2-dihydroquinolin-5-yl)urea], on human TRPV1 [1], the “human TRPV1 H^+ (max % remain)” value was found to be 39%. Also, the IC50 at human TRPV1 [2] is 53 nM.

As for `Cn1c(=O)ccc2c(NC(=O)N[C@@H]3CCOc4ccc(F)cc43)cccc21` [Example 82, 1-[(4R)-6-fluoro-3,4-dihydro-2H-chromen-4-yl]-3-(1-methyl-2-oxo-1,2-dihydroquinolin-5-yl)urea], the “human TRPV1 H^+ (max % remain)” value on human TRPV1 [1] is recorded as 56%. At human TRPV1 [2], the IC50 is 250 nM.

Turning to `Cn1c(=O)ccc2c(NC(=O)N[C@@H]3CCc4cc(F)ccc43)cccc21` [Example 83, 1-[(1R)-5-fluoro-2,3-dihydro-1H-inden-1-yl]-3-(1-methyl-2-oxo-1,2-dihydroquinolin-5-yl)urea], the “human TRPV1 H^+ (max % remain)” value at human TRPV1 [1] came out at 36%. At human TRPV1 [2], the IC50 is 19 nM.

As for `Cn1c(=O)ccc2c(NC(=O)N[C@@H]3CC(C)(C)Oc4c3ccc(Cl)c4F)cccc21` [Example 85, 1-[(4R)-7-chloro-8-fluoro-2,2-dimethyl-3,4-dihydro-2H-chromen-4-yl]-3-(1-methyl-2-oxo-1,2-dihydroquinolin-5-yl)urea], the “human TRPV1 H^+ (max % remain)” value at human TRPV1 [1] is 39%. Besides, the IC50 at human TRPV1 [2] came out at 23 nM.

On to `Cn1c(=O)ccc2c(NC(=O)N[C@@H]3CCc4cc(C(F)(F)F)ccc43)cccc21` [Example 86, 1-(1-methyl-2-oxo-1,2-dihydroquinolin-5-yl)-3-[(1R)-5-(trifluoromethyl)-2,3-dihydro-1H-inden-1-yl]urea], for which, on human TRPV1 [1], the “human TRPV1 H^+ (max % remain)” value is reported as 23%. For the same compound, at human TRPV1 [2], the IC50 was 10 nM.

`Cn1c(=O)ccc2c(NC(=O)N[C@@H]3CCOc4cc(OC(F)(F)F)ccc43)cccc21` [Example 87, 1-(1-methyl-2-oxo-1,2-dihydroquinolin-5-yl)-3-[(4R)-7-(trifluoromethoxy)-3,4-dihydro-2H-chromen-4-yl]urea]: the “human TRPV1 H^+ (max % remain)” value on human TRPV1 [1] is 57%. The IC50 on human TRPV1 [2] was 28 nM.

Regarding `Cn1c(=O)ccc2c(NC(=O)N[C@H]3CC4(CCC4)Oc4ccc(F)cc43)cccc21` [Example 88, 1-[(4S)-6-fluoro-3,4-dihydrospiro[chromene-2,1′-cyclobutan]-4-yl]-3-(1-methyl-2-oxo-1,2-dihydroquinolin-5-yl)urea], the “human TRPV1 H^+ (max % remain)” value at human TRPV1 [1] worked out at 51%. Moreover, the IC50 on human TRPV1 [2] turned out to be 2500 nM.

Regarding `Cn1c(=O)ccc2c(NC(=O)N[C@@H]3CC(C)(C)Oc4cc(Br)ccc43)cccc21` [Example 89, 1-[(4R)-7-bromo-2,2-dimethyl-3,4-dihydro-2H-chromen-4-yl]-3-(1-methyl-2-oxo-1,2-dihydroquinolin-5-yl)urea], the “human TRPV1 H^+ (max % remain)” value at human TRPV1 [1] amounted to 53%. Further, the concentration for half-maximal inhibition (IC50) at human TRPV1 [2] worked out at 31 nM.

Turning to `Cn1c(=O)ccc2c(NC(=O)N[C@@H]3C[C@](C)(C(F)(F)F)Oc4ccccc43)cccc21` [Example 90, 1-(1-methyl-2-oxo-1,2-dihydroquinolin-5-yl)-3-[(2R,4R)-2-methyl-2-(trifluoromethyl)-3,4-dihydro-2H-chromen-4-yl]urea], the “human TRPV1 H^+ (max % remain)” value on human TRPV1 [1] was determined as 45%. For the same compound, the IC50 at human TRPV1 [2] turned out to be 11 nM.

Take `Cn1c(=O)ccc2c(NC(=O)N[C@@H]3CC(C)(C)Oc4cc(C(F)(F)F)ccc43)cccc21` [Example 91, 1-[(4R)-2,2-dimethyl-7-(trifluoromethyl)-3,4-dihydro-2H-chromen-4-yl]-3-(1-methyl-2-oxo-1,2-dihydroquinolin-5-yl)urea]: the “human TRPV1 H^+ (max % remain)” value on human TRPV1 [1] is on record as 50%. Also, the IC50 on human TRPV1 [2] came to 15 nM.

For the compound `Cn1c(=O)ccc2c(NC(=O)N[C@@H]3CC(CF)(CF)Oc4cc(C(F)(F)F)ccc43)cccc21` [Example 92, 1-[(4R)-2,2-bis(fluoromethyl)-7-(trifluoromethyl)-3,4-dihydro-2H-chromen-4-yl]-3-(1-methyl-2-oxo-1,2-dihydroquinolin-5-yl)urea], on human TRPV1 [1], the “human TRPV1 H^+ (max % remain)” value worked out at 43%. The IC50 at human TRPV1 [2] turned out to be 19 nM.

Consider `Cn1c(=O)ccc2c(NC(=O)N[C@@H]3CC(C)(C)Oc4c3cccc4C(F)(F)F)cccc21` [Example 93, 1-[(4R)-2,2-dimethyl-8-(trifluoromethyl)-3,4-dihydro-2H-chromen-4-yl]-3-(1-methyl-2-oxo-1,2-dihydroquinolin-5-yl)urea], for which the “human TRPV1 H^+ (max % remain)” value at human TRPV1 [1] was 47%. The IC50 at human TRPV1 [2] amounted to 39 nM.

Regarding `Cn1c(=O)ccc2c(NC(=O)N[C@@H]3CC(C)(C)Oc4c(F)cccc43)cccc21` [Example 94, 1-[(4R)-8-fluoro-2,2-dimethyl-3,4-dihydro-2H-chromen-4-yl]-3-(1-methyl-2-oxo-1,2-dihydroquinolin-5-yl)urea], the “human TRPV1 H^+ (max % remain)” value at human TRPV1 [1] is listed as 53%. Moreover, the IC50 on human TRPV1 [2] is 19 nM.

In the case of `Cn1c(=O)ccc2c(NC(=O)N[C@@H]3CC(CF)(CF)Oc4c(F)cccc43)cccc21` [Example 95, 1-[(4R)-8-fluoro-2,2-bis(fluoromethyl)-3,4-dihydro-2H-chromen-4-yl]-3-(1-methyl-2-oxo-1,2-dihydroquinolin-5-yl)urea], the “human TRPV1 H^+ (max % remain)” value at human TRPV1 [1] was found to be 54%. The IC50 at human TRPV1 [2] worked out at 63 nM.

Take `Cn1c(=O)ccc2c(NC(=O)N[C@@H]3CCc4cc(Cl)ccc43)cccc21` [Example 96, 1-[(1R)-5-chloro-2,3-dihydro-1H-inden-1-yl]-3-(1-methyl-2-oxo-1,2-dihydroquinolin-5-yl)urea]: the “human TRPV1 H^+ (max % remain)” value at human TRPV1 [1] is recorded as 37%. On human TRPV1 [2], the IC50 amounted to 8 nM.

In the case of `Cn1c(=O)ccc2c(NC(=O)N[C@@H]3CCOc4c3cccc4C(F)(F)F)cccc21` [Example 97, 1-(1-methyl-2-oxo-1,2-dihydroquinolin-5-yl)-3-[(4R)-8-(trifluoromethyl)-3,4-dihydro-2H-chromen-4-yl]urea], on human TRPV1 [1], the “human TRPV1 H^+ (max % remain)” value is on record as 26%. Also, the IC50 on human TRPV1 [2] turned out to be 17 nM.

On to `Cn1c(=O)ccc2c(NC(=O)N[C@H]3CC(C)(C)Oc4ccc(F)cc43)cccc21` [Example 98, 1-[(4S)-6-fluoro-2,2-dimethyl-3,4-dihydro-2H-chromen-4-yl]-3-(1-methyl-2-oxo-1,2-dihydroquinolin-5-yl)urea], for which the “human TRPV1 H^+ (max % remain)” value on human TRPV1 [1] is 58%. In addition, the IC50 on human TRPV1 [2] turned out to be 3700 nM.

For the origin of these results see US8969325B2, “TRPV1 antagonists” (AbbVie Inc., priority 2011, dated 2015).
